{"source": "patent US20100166781A1", "about": "“HAT ACETYLATION PROMOTERS AND USES OF COMPOSITIONS THEREOF IN PROMOTING IMMUNOGENICITY” (Tapimmune, Inc., priority 2008, published 2010)", "key": {"[1]": {"system": "TAP-1 promoter", "test": "Chromatin immunoprecipitation with anti-RNA pol II antibody, real-time PCR of TAP-1 promoter", "type": "cell-based, murine", "description": "(§1) As the low level of histone H3 acetylation in TAP-1 promoter seems to contribute to TAP-1 deficiency in carcinomas, a further investigation was conducted to determine whether treatment of TAP-deficient carcinoma cells with TSA would increase the TAP-1 expression in the cells. […] Relative RNA pol II or acetyl-histone H3 levels were determined as the ratio of copy numbers of the eluted TAP-1 promoter and copy numbers of the corresponding inputs. The smallest ratio was arbitrarily determined as 1. Columns, average of three to six experiments; bars, SEM. *P<0.05 compared with cells that expressed higher MHC class I in the same assay."}, "[2]": {"system": "TAP-1 promoter", "test": "Chromatin immunoprecipitation with anti-acetyl-histone H3 antibody, real-time PCR of TAP-1 promoter", "type": "cell-based, murine", "description": "as §1"}, "[3]": {"system": "TAP-1 promoter", "test": "Luciferase assay in cells stably transfected with pTAP-1-luc construct", "type": "cell-based, murine", "excerpt": "A plasmid containing an EGFP gene driven by the TAP-1 promoter (pTAP-1-EGFP) was constructed as described previously. A similar construct containing a luciferase gene driven by the TAP-1 promoter (pTAP-1-luc) was created by inserting the TAP-1 promoter between the Sac I and BgI II sites of pGL4.14[luc2/Hygro] vector (Promega, Madison, Wis.). Several truncated TAP-1 promoter constructs were also made by cloning its 5′-end truncations into pGL4.14[luc2/Hygro] vector. Primers were used for PCR amplifications of the full TAP-1 promoter and its truncations.\nTC-1, D11, A9, PA and LMD cells were transfected with the TAP-1 promoter constructs or the promoterless pGL4.14[luc2/Hygro] vector using ExGen 500 in vitro Transfection Reagent (Fermentas). Transient transfectants were analyzed between 12-72 hours after transfection. To obtain stable transfectants, the transfected cells were selected for 3 weeks in the presence of the following concentrations of Hygromycin B (Sigma): 550 ng/ml for TC-1 cells, 250 ng/ml for D11, A9 and LMD cells, 200 ng/ml for PA cells.\nRelative luciferase activity (RLA) in transient transfectants was assessed by dual luciferase assay (Promega) within 12-72 hours after transfection. RLA in stable transfectants (3 weeks-1 month post-transfection) was assessed by Bright-Glo luciferase assay (Promega), and determined by subtracting the results with corresponding values obtained from transfection with promoterless pGL4.14[luc2/Hygro] vector alone and by further normalizing the values with copy number of plasmids integrated into the genome of each stable transfectant."}, "[4]": {"system": "TAP-1", "test": "RT-PCR and Western blot analysis of TAP-1 expression", "type": "cell-based, murine", "description": "Fifty micrograms of proteins per sample were separated through 6% (p300, CBP and TAP-1) or 15% (β-actin and acetyl-histone H3) SDS-PAGE. Proteins were transferred to a nitrocellulose membrane (Bio-rad, Hercules, Calif.). Blots were blocked with 5% skim milk in PBS and incubated with appropriate Ab dilutions. […] Secondary Ab used was HRP-conjugated goat anti-rabbit secondary Ab (Jackson Immunoresearch Lab., West Grove, Pa.). For the loading controls, anti β-actin mouse monoclonal Ab (Sigma) was used, followed by HRP-conjugated goat anti-mouse secondary Ab (Pierce, Rockford, Ill.). Blots were developed using Lumi-light reagents (Pierce).\nWestern blot analysis of TAP-1 expression was performed using lysate of cells that were pre-treated with 20 to 200 ng/ml TSA for 24 to 48 hours, and representative data from cells treated with 100 ng/ml TSA for 24 hours (PA and LMD) or 48 hours (TC-1, D11 and A9) are shown in FIG. 4A."}, "[5]": {"target": "surface H-2K^b (Mus musculus, UniProt P01901)", "sequence (P01901 whole entry, looked up)": "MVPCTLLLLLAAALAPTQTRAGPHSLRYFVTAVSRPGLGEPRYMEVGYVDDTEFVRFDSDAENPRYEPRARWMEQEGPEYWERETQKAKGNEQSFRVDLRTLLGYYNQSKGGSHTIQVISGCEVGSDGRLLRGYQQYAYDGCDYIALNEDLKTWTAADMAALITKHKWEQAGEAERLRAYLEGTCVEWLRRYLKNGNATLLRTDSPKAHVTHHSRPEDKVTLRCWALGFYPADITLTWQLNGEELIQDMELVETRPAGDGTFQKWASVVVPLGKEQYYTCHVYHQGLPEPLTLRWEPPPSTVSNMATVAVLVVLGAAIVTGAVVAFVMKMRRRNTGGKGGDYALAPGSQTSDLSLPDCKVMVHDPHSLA", "test": "Flow cytometric analysis of surface H-2K^b expression", "type": "cell-based, murine", "description": "Cells untreated (shaded areas) or treated with 100 ng/ml TSA (thick lines), or 50 ng/ml IFN-γ (thin lines), were stained with PE-conjugated anti-H-2K^bmAb. Data are representatives of three experiments."}, "[6]": {"system": "VSV-infected cancer cells", "type": "cell-based, murine", "details": "for enhancement of CTL killing / enhancement of levels of killing: treatment 24 hours prior to VSV infection; for enhancement of CTL killing: effector:target 22:1"}, "[7]": {"system": "A9 tumor", "test": "A9 tumor growth in C57BL/6 syngeneic mice", "type": "in vivo, C57BL/6 mice", "details": "A9 cells s.c., 500 μg/kg daily i.p. for 20 days from day 7, versus DMSO control", "description": "A total of 3×10^5 cells of TC-1 or A9 in PBS were injected subcutaneously into seven-week-old female C57BL/6 syngeneic mice (Charles River, St. Constant, QC). Mice were assigned to 3 groups of 4 animals. TSA was dissolved in DMSO to a concentration of 0.2 mg/ml. Daily treatment with 50 ul TSA (500 μg/kg) or DMSO (vehicle control) was administered via intraperitoneal injection for 20 days, starting on day 7 after injection with tumor cells. Mice were weighed weekly, and their behavior and food intake were monitored throughout the course of the experiment. Tumors were measured 3 times a week and tumor volume was calculated using the formula: tumor volume=length×width×height×π/6. The study period was determined by the size of the tumors in the A9 group treated with DMSO vehicle control.\nTC-1 and A9 cells were cultured in vitro and were passaged less than 8 times before 3×10^5 of each group of the cells were injected subcutaneously into 7 week-old female C57BL/6 syngeneic mice. Daily treatment with TSA or DMSO vehicle control began on day 7 after cells injection, as the animals started to grow palpable A9 tumors. […] No tumor was detected beyond 1 month after injection with less than 3×10^5 TC-1 tumor cells (data not shown)."}, "[8]": {"system": "A9 tumour", "test": "A9 tumor growth in immunodeficient Rag1 mice", "type": "in vivo", "details": "TSA treatment", "description": "A9 tumor growth was suppressed in C57B1/6 mice treated daily for 20 days with 500 μg/kg of TSA (black bars) as compared to those treated with DMSO vehicle control (white bars). However, TSA treatment had no affect on A9 tumour growth in Ragl^“7” mice."}, "[9]": {"system": "LMP-2", "test": "RT-PCR analysis of APM components: LMP-2", "details": "HPV-positive carcinoma cell lines, particularly TAP-deficient cells"}, "[10]": {"system": "TAP-2", "test": "RT-PCR analysis of APM components: TAP-2", "details": "HPV-positive carcinoma cell lines, particularly TAP-deficient cells"}, "[11]": {"system": "tapasin", "test": "RT-PCR analysis of APM components: tapasin", "details": "HPV-positive carcinoma cell lines, particularly TAP-deficient cells"}, "[12]": {"system": "TAP-1 promoter", "test": "Chromatin immunoprecipitation with anti-CBP antibody, real-time PCR of 5'-end of TAP-1 promoter", "details": "LMD, D11 and A9 cells, IFN-γ treatment"}}, "note": "Entries after “also recorded” stand apart in the source; their conditions may differ. Like-named read-outs stand apart in the source and are kept apart here.", "data": [{"molecule": "CC(/C=C/C(=O)NO)=C\\[C@@H](C)C(=O)c1ccc(N(C)C)cc1", "note": "[TSA, trichostatin A]", "values": [{"measurement": "level of RNA pol II binding to TAP-1 promoter", "setting": "[1]; TSA treatment, TAP-deficient cells of HPV-positive and prostate carcinoma models", "value": "to similar levels as in TAP-expressing cells"}, {"measurement": "recruitment of RNA pol II complex to the TAP-1 promoter", "setting": "[1]; TSA treatment, most cell lines, particularly TAP-deficient cells", "value": "enhanced"}, {"measurement": "levels of acetyl-histone H3 in TAP-1 promoter", "setting": "[2]; TSA treatment, all cell lines tested", "value": "did not significantly alter"}, {"measurement": "TAP-1 promoter activity", "setting": "[3]; HPV-positive carcinoma model, TAP-deficient cells", "value": "to similar levels as in TAP-expressing cells"}, {"measurement": "TAP-1 promoter activity (luc expression)", "setting": "[3]; TAP-deficient cells stably transfected with pTAP-1-luc", "value": "increased significantly"}, {"measurement": "TAP-1 promoter activity", "setting": "[3]; prostate carcinoma model, LMD cells", "value": "statistically significant improvement"}, {"measurement": "Optimal dose for optimal induction of TAP-1 expression", "setting": "[4]; 24 hours in LMD, CMT.64 and B16, 48 hours in D11 and A9", "value": 100, "unit": "ng/mL"}, {"measurement": "expression of TAP-1", "setting": "[4]; RT-PCR and Western blot, 100 ng/ml for 24 h (PA, LMD) or 48 h (TC-1, D11, A9)", "value": "up-regulated"}, {"measurement": "TAP-1 expression upon increasing the dose", "setting": "[4]; Western blot, TAP-deficient cells, 20 to 200 ng/ml for 24 to 48 hours", "value": "increasing levels of TAP-1 expression"}, {"measurement": "increase of surface expression H-2K^b", "setting": "[5]; MHC class I-deficient cells, 100 ng/ml TSA", "value": "approximately 10 fold"}, {"measurement": "surface H-2K^b levels", "setting": "[5]; PA and TC-1 cells (originally high surface H-2K)", "value": "remained the same"}, {"measurement": "enhancement of CTL killing", "setting": "[6]; VSV-infected A9 cells", "value": "~7", "unit": "fold"}, {"measurement": "enhancement of levels of killing", "setting": "[6]; VSV-infected B16 cells", "value": 20, "unit": "fold"}, {"measurement": "enhancement of levels of killing", "setting": "[6]; VSV-infected CMT.64 cells", "value": 5, "unit": "fold"}, {"measurement": "enhancement of CTL killing", "setting": "[6]; VSV-infected D11 cells", "value": "~6", "unit": "fold"}, {"measurement": "enhancement of CTL killing", "setting": "[6]; VSV-infected TC-1 cells", "value": "approximately 1.4 fold"}, {"measurement": "tumor growth", "setting": "[7]", "value": "suppressed; also recorded: slower"}, {"measurement": "tumour growth", "setting": "[8]", "value": "no affect"}, {"measurement": "expression of LMP-2", "setting": "[9]", "value": "up-regulation"}, {"measurement": "expression of TAP-2", "setting": "[10]", "value": "up-regulation"}, {"measurement": "expression of tapasin", "setting": "[11]", "value": "up-regulation"}]}, {"molecule": "IFN-γ: potent inducer of TAP-1 and surface MHC class I expression in cancer cells, used as positive control (protein, UniProt P01579 24-161, looked up) Interferon gamma: QDPYVKEAENLKKYFNAGHSDVADNGTLFLGILKNWKEESDRKIMQSQIVSFYFKLFKNFKDDQSIQKSVETIKEDMNVKFFNSNKKKRDDFEKLTNYSVTDLNVQRKAIHELIQVMAELSPAAKTGKRKRSQMLFRG", "values": [{"measurement": "level of RNA pol II in TAP-1 promoter", "setting": "[1]; IFN-γ treatment", "value": "increased"}, {"measurement": "level of acetyl-histone H3 in TAP-1 promoter", "setting": "[2]; IFN-γ treatment", "value": "increased"}, {"measurement": "histone H3 acetylation in TAP-1 promoter", "setting": "[2]; TAP-deficient cells, IFN-γ compared with TSA", "value": "to much higher levels than TSA did"}, {"measurement": "surface H-2K^b expression", "setting": "[5]; all cell lines, 50 ng/ml IFN-γ", "value": "increased"}, {"measurement": "level of killing by CTL", "setting": "[6]; all VSV-infected cell lines, IFN-γ treatment", "value": "maximal induction"}, {"measurement": "expression of LMP-2", "setting": "[9]", "value": "inducible"}, {"measurement": "expression of TAP-2", "setting": "[10]", "value": "inducible"}, {"measurement": "CBP binding to TAP-1 promoter", "setting": "[12]", "value": "increase"}]}]}
